Earlier results in patent publication US8470831B2, “Acrylamido derivatives useful as inhibitors of the mitochondrial permeability transition” (Cogenia SRL, priority 2008, dated 2013).

Tests used:
[1] = system: rat liver mitochondrial membranes
[2] = mdx and Scgd-/- mice
[3] = mouse, myocardial infarction and reperfusion injury
[4] = rat, transient focal cerebral ischemia
[5] = rat, TNF-α-dependent acute inflammatory hepatitis
[6] = patients, one month treatment

Question: For `COc1ccc(CN2CCN(CCCSc3cc(C(C)(C)C)c(O)c(C(C)(C)C)c3)CC2)c(OC)c1OC` [Compound S-15176, N-[(3,5-di-tert-butyl-4-hydroxy-1-thiophenyl)]-3-propyl-N′-(2,3,4-trimethoxybenzyl)piperazine], which “mitochondrial membrane depolarization and respiration uncoupling” value [1] is on record?
Answer: Its value is “induces depolarization of the mitochondrial membrane and respiration uncoupling”.

Question: With `C/C=C/C[C@@H](C)[C@@H](O)[C@H]1C(=O)N[C@@H](CC)C(=O)N(C)[C@H](C)C(=O)N(CC)[C@@H](C(C)C)C(=O)N[C@@H](C(C)C)C(=O)N(C)[C@@H](CC(C)C)C(=O)N[C@@H](C)C(=O)N[C@H](C)C(=O)N(C)[C@@H](CC(C)C)C(=O)N(C)[C@@H](CC(C)C)C(=O)N(C)[C@@H](C(C)C)C(=O)N1C` [Debio-025] as the compound, how does the “mitochondrial swelling and necrotic disease” value [2] read?
Answer: Its value is “reduced mitochondrial swelling and necrotic disease”.

Question: What about the infarct size [3] of the same compound?
Answer: Its infarct size is “reduced infarct size”.

Question: Which protection [4] does the source give for `C/C=C/C[C@@H](C)[C@@H](O)[C@H]1C(=O)N[C@@H](CC)C(=O)N(C)CC(=O)N(C)[C@@H]([C@@H](C)CC)C(=O)N[C@@H](C(C)C)C(=O)N(C)[C@@H](CC(C)C)C(=O)N[C@@H](C)C(=O)N[C@H](C)C(=O)N(C)[C@@H](CC(C)C)C(=O)N(C)[C@@H](CC(C)C)C(=O)N(C)[C@@H](C(C)C)C(=O)N1C` [NIM811] here?
Answer: The protection was 40%.

Question: Which results are given for Cyclosporin A?
Answer: liver damage [5]: strongly reduces liver damage; mitochondrial function [6]: amelioration of mitochondrial function
